Reference: patent US9447039B2, “Indole carboxamide derivatives and uses thereof” (priority 2012, dated 2016)
Values after ≈ are worked out from the molar mass of the structure shown.

Test system: Mycobacterium tuberculosis H37Rv (ATCC #27294)
Assay: Minimum Inhibitory Concentration (MIC50) determination
Type: cell-based
Conditions: 120 h
Method: Mycobacterium tuberculosis H37Rv (ATCC #27294) (Mtb) strain was maintained in Middlebrook 7H9 broth medium supplemented with 0.05% Tween 80 and 10% ADS supplement. ADS supplement contains 5% bovine serum albumin fraction V. 2% D-dextrose and 0.8% of sodium chloride. Middlebrook 7H11 agar medium supplemented with 10% OADC (oleic acid, albumin, dextrose and catalase) was used as solid media for growing Mtb. Stock solutions of the compounds were prepared using 90% DMSO.
Minimum Inhibitory Concentration (MIC50) Determination
In Table 5 below, MIC50 is defined as the lowest concentration of the compound that inhibited 50% growth of the wild type strain compared to untreated controls. Test compounds were two or three fold serially diluted in duplicates and spotted by mosquito HTS to 384-well clear plates, resulting in 10 dilutions of each compound. A volume of 50 μl of Mtb culture (final OD600 of 0.02) was added to each well, and the assay plates were incubated at 37° C. for 5 days. Growth of bacteria was measured by reading absorbance at 600 nm using a Spectramax M2 spectrophotometer. MIC50 values were determined by using Activity Base software.

| Structure (SMILES) | MIC50 |
| --- | --- |
| CCC(CC)NC(=O)c1cc2c(C)cc(C)cc2[nH]1 [Example 3F, 4,6-Dimethyl-N-(pentan-3-yl)-1H-indole-2-carboxamide] | 4.33 µM (≈ 1.12 µg/mL) |
| Cc1cc(C)c2cc(C(=O)NC3CCCCC3C)[nH]c2c1 (stereo not drawn) [Example 3H, 4,6-Dimethyl-N-(2-methylcyclohexyl)-1H-indole-2-carboxamide] | 0.32 µM (≈ 0.091 µg/mL) |
| Cc1cc(N2CCCCC2)cc2[nH]c(C(=O)N[C@@H]3CCCC[C@@H]3C)cc12 [Example 6C, 4-Methyl-N-((1R,2S)-2-methylcyclohexyl)-6-(piperidin-1-yl)-1H-indole-2-carboxamide] | 5.12 µM (≈ 1.81 µg/mL) |
| CC1CCC(NC(=O)c2cc3ccc(F)cc3[nH]2)CC1 (stereo not drawn) [Example 4BF, 6-Fluoro-N-(4-methylcyclohexyl)-1H-indole-2-carboxamide] | 1.62 µM (≈ 0.444 µg/mL) |
| CC1CCC(NC(=O)c2cc3c(F)cc(Cl)cc3[nH]2)CC1 (stereo not drawn) [Example 4AS, 6-Chloro-4-fluoro-N-(4-methylcyclohexyl)-1H-indole-2-carboxamide] | 0.23 µM (≈ 0.071 µg/mL) |
| CCC(C)CNC(=O)c1cc2c(C)cc(C)cc2[nH]1 (stereo not drawn) [Example 3I, 4,6-Dimethyl-N-(2-methylbutyl)-1H-indole-2-carboxamide] | 2.48 µM (≈ 0.641 µg/mL) |
| Cc1cc(C)c2cc(C(=O)N[C@@H]3CCC[C@@H](C)[C@@H]3C)[nH]c2c1 [Example 4C, N-((1R,2S,3R)-2,3-Dimethylcyclohexyl)-4,6-dimethyl-1H-indole-2-carboxamide] | 0.03 µM (≈ 0.00895 µg/mL) |
| C[C@H]1CC[C@@H](NC(=O)c2cc3c(Cl)cc(Cl)cc3[nH]2)CC1 [Example 4R, 4,6-Dichloro-N-(cis-4-methylcyclohexyl)-1H-indole-2-carboxamide] | 0.14 µM (≈ 0.0455 µg/mL) |
| Cc1cc(C)c2cc(C(=O)NC(C)CCc3ccccc3)[nH]c2c1 (stereo not drawn) [Example 3E, 4,6-Dimethyl-N-(4-phenylbutan-2-yl)-1H-indole-2-carboxamide] | 5.74 µM (≈ 1.84 µg/mL) |
| Cc1cc(C)c2cc(C(=O)NCC(C)C)[nH]c2c1 [Example 3J, N-Isobutyl-4,6-dimethyl-1H-indole-2-carboxamide] | 11.8 µM (≈ 2.9 µg/mL) |
| Cc1ccc2cc(C(=O)N[C@@H]3CCCC[C@@H]3C)[nH]c2c1 [Example 4Z, 6-Methyl-N-((1R,2S)-2-methylcyclohexyl)-1H-indole-2-carboxamide] | 0.36 µM (≈ 0.0973 µg/mL) |
| O=C(NC1CCC(F)(F)CC1)c1cc2c(Cl)cc(Cl)cc2[nH]1 [Example 4P, 4,6-Dichloro-N-(4,4-difluorocyclohexyl)-1H-indole-2-carboxamide] | 0.565 µM (≈ 0.196 µg/mL) |
| Cc1cc(C)c2cc(C(=O)NC3CCCCCC3)[nH]c2c1 [Example 3G, N-Cycloheptyl-4,6-dimethyl-1H-indole-2-carboxamide] | 0.098 µM (≈ 0.0279 µg/mL) |
| Cc1cc(C)c2cc(C(=O)N[C@@H]3CCC[C@@H]3C)[nH]c2c1 [Example 4K, 4,6-Dimethyl-N-((1R,2S)-2-methylcyclopentyl)-1H-indole-2-carboxamide] | 0.69 µM (≈ 0.187 µg/mL) |
| CCC(C)NC(=O)c1cc2c(C)cc(C)cc2[nH]1 (stereo not drawn) [Example 3M, N-(sec-Butyl)-4,6-dimethyl-1H-indole-2-carboxamide] | 9.33 µM (≈ 2.28 µg/mL) |
| Cc1cc(NC(C)C)cc2[nH]c(C(=O)N[C@@H]3CCCC[C@@H]3C)cc12 [Example 6E, 6-(Isopropylamino)-4-methyl-N-((1R,2S)-2-methylcyclohexyl)-1H-indole-2-carboxamide] | 2.92 µM (≈ 0.958 µg/mL) |
| Cc1cc(C)c2cc(C(=O)Nc3ccc(C(C)C)cc3)[nH]c2c1 [Example 3A, N-(4-Isopropylphenyl)-4,6-dimethyl-1H-indole-2-carboxamide] | 8.67 µM (≈ 2.66 µg/mL) |
| COCC1CCC(NC(=O)c2cc3c(Cl)cc(Cl)cc3[nH]2)CC1 (stereo not drawn) [Example 8A, 4,6-Dichloro-N-(4-(methoxymethyl)cyclohexyl)-1H-indole-2-carboxamide] | 1.51 µM (≈ 0.536 µg/mL) |
| Cc1cc(Nc2ccccc2)cc2[nH]c(C(=O)N[C@@H]3CCCC[C@@H]3C)cc12 [Example 6A, 4-methyl-N-((1R,2S)-2-methylcyclohexyl)-6-(phenylamino)-1H-indole-2-carboxamide] | 0.145 µM (≈ 0.0524 µg/mL) |
| C[C@H]1CCCC[C@H]1NC(=O)c1cc2c(C(F)(F)F)cc(C(F)(F)F)cc2[nH]1 [Example 4BC, N-((1R,2S)-2-Methylcyclohexyl)-4,6-bis(trifluoromethyl)-1H-indole-2-carboxamide] | 1.6 µM (≈ 0.628 µg/mL) |
| COC1CCCCC1NC(=O)c1cc2c(C)cc(C)cc2[nH]1 (stereo not drawn) [Example 4N, N-(2-Methoxycyclohexyl)-4,6-dimethyl-1H-indole-2-carboxamide] | 5.78 µM (≈ 1.74 µg/mL) |
| C[C@H]1CCCC[C@H]1NC(=O)c1cc2c(C#N)cccc2[nH]1 [Example 4AD, 4-Cyano-N-((1R,2S)-2-methylcyclohexyl)-1H-indole-2-carboxamide] | 0.76 µM (≈ 0.214 µg/mL) |
| Cc1cc(C)c2cc(C(=O)NCC3CCCCC3)[nH]c2c1 [Example 3N, N-(Cyclohexylmethyl)-4,6-dimethyl-1H-indole-2-carboxamide] | 0.87 µM (≈ 0.247 µg/mL) |

| Structure (SMILES) | MIC50 |
| --- | --- |
| C[C@H]1CC[C@H](NC(=O)c2cc3c(F)cc(F)cc3[nH]2)CC1 [Example 4AU, 4,6-Difluoro-N-(trans-4-methylcyclohexyl)-1H-indole-2-carboxamide] | 0.56 µM (≈ 0.164 µg/mL) |
| COc1cccc2[nH]c(C(=O)N[C@@H]3CCCC[C@@H]3C)cc12 [Example 4AL, 4-Methoxy-N-((1R,2S)-2-methylcyclohexyl)-1H-indole-2-carboxamide] | 1.59 µM (≈ 0.455 µg/mL) |
| C[C@H]1CCCC[C@H]1NC(=O)c1cc2ccc(Br)cc2[nH]1 [Example 4AC, 6-Bromo-N-((1R,2S)-2-methylcyclohexyl)-1H-indole-2-carboxamide] | 0.5 µM (≈ 0.168 µg/mL) |
| Cc1cc(C)c2cc(C(=O)N[C@H]3CC[C@H](C(C)C)CC3)[nH]c2c1 [Example 4D, N-(trans-4-Isopropylcyclohexyl)-4,6-dimethyl-1H-indole-2-carboxamide] | 0.03 µM (≈ 0.00937 µg/mL) |
| COc1ccc2cc(C(=O)N[C@@H]3CCCC[C@@H]3C)[nH]c2c1 [Example 4AM, 6-Methoxy-N-((1R,2S)-2-methylcyclohexyl)-1H-indole-2-carboxamide] | 6.19 µM (≈ 1.77 µg/mL) |
| Cc1cccc2[nH]c(C(=O)N[C@@H]3CCCC[C@@H]3C)cc12 [Example 4AA, 4-Methyl-N-((1R,2S)-2-methylcyclohexyl)-1H-indole-2-carboxamide] | 0.25 µM (≈ 0.0676 µg/mL) |
| C[C@H]1CC[C@H](NC(=O)c2cc3c(C#N)cc(C#N)cc3[nH]2)CC1 [Example 4AV, 4,6-Dicyano-N-(trans-4-methylcyclohexyl)-1H-indole-2-carboxamide] | 0.225 µM (≈ 0.0689 µg/mL) |
| CCNc1cc(C)c2cc(C(=O)N[C@@H]3CCCC[C@@H]3C)[nH]c2c1 [Example 6D, 6-(Ethylamino)-4-methyl-N-((1R,2S)-2-methylcyclohexyl)-1H-indole-2-carboxamide] | 4.86 µM (≈ 1.52 µg/mL) |
| Cc1cc(C)c2cc(C(=O)Nc3ccc(F)cc3)[nH]c2c1 [Example 3C, N-(4-Fluorophenyl)-4,6-dimethyl-1H-indole-2-carboxamide] | 2.45 µM (≈ 0.692 µg/mL) |
| Cc1cc(C)c2cc(C(=O)N[C@@H]3CCCC[C@@H]3C)[nH]c2c1 [Example 4A, 4,6-Dimethyl-N-((1R,2S)-2-methylcyclohexyl)-1H-indole-2-carboxamide] | 0.07 µM (≈ 0.0199 µg/mL) |
| O=C(NC1CCC(C(F)(F)F)CC1)c1cc2c(F)cc(F)cc2[nH]1 (stereo not drawn) [Example 5B, 4,6-Difluoro-N-(4-(trifluoromethyl)-cyclohexyl)-1H-indole-2-carboxamide] | 1.19 µM (≈ 0.41 µg/mL) |
| Cc1cc(C)c2cc(C(=O)Nc3ccccc3C)[nH]c2c1 [Example 3L, 4,6-Dimethyl-N-(o-tolyl)-1H-indole-2-carboxamide] | 3.12 µM (≈ 0.868 µg/mL) |
| CC1CCC(NC(=O)c2cc3c(F)cc(F)cc3[nH]2)CC1 (stereo not drawn) [Example 4F, 4,6-Difluoro-N-(4-methylcyclohexyl)-1H-indole-2-carboxamide] | 0.37 µM (≈ 0.108 µg/mL) |
| C[C@H]1CCCC[C@H]1NC(=O)c1cc2cc3c(cc2[nH]1)OCO3 [Example 4AP, N-((1R,2S)-2-Methylcyclohexyl)-5H-[1,3]dioxolo[4,5-f]indole-6-carboxamide] | 2.13 µM (≈ 0.64 µg/mL) |
| Cc1cc(C)c2cc(C(=O)NC3CCCCC3O)[nH]c2c1 (stereo not drawn) [Example 4L, N-(2-Hydroxycyclohexyl)-4,6-dimethyl-1H-indole-2-carboxamide] | 2.92 µM (≈ 0.837 µg/mL) |
| Cc1cc(C)c2cc(C(=O)NC3CCCCC3C(C)C)[nH]c2c1 (stereo not drawn) [Example 4O, N-(2-Isopropylcyclohexyl)-4,6-dimethyl-1H-indole-2-carboxamide] | 0.765 µM (≈ 0.239 µg/mL) |
| Cc1cc(C)c2cc(C(=O)N[C@H]3CCC[C@H](C)[C@H]3C)[nH]c2c1 [Example 4E, N-((1S,2R,3S)-2,3-Dimethylcyclohexyl)-4,6-dimethyl-1H-indole-2-carboxamide] | 0.08 µM (≈ 0.0239 µg/mL) |
| COc1ccc2[nH]c(C(=O)N[C@@H]3CCCC[C@@H]3C)cc2c1 [Example 4AR, 5-Methoxy-N-((1R,2S)-2-methylcyclohexyl)-1H-indole-2-carboxamide] | 7.53 µM (≈ 2.16 µg/mL) |
| Cc1ccc(NC(=O)c2cc3c(C)cc(C)cc3[nH]2)cc1 [Example 3K, 4,6-Dimethyl-N-(p-tolyl)-1H-indole-2-carboxamide] | 5.64 µM (≈ 1.57 µg/mL) |
| C[C@H]1CCCC[C@H]1NC(=O)c1cc2c(F)cccc2[nH]1 [Example 4AY, 4-Fluoro-N-((1R,2S)-2-methylcyclohexyl)-1H-indole-2-carboxamide] | 1.83 µM (≈ 0.502 µg/mL) |
| N#Cc1ccc2cc(C(=O)NC3CCC(F)(F)CC3)[nH]c2c1 [Example 4AG, 6-Cyano-N-(4,4-difluorocyclohexyl)-1H-indole-2-carboxamide] | 3.36 µM (≈ 1.02 µg/mL) |
| CC1(C)CCC(NC(=O)c2cc3c(F)cc(F)cc3[nH]2)CC1 [Example 2A, N-(4,4-Dimethylcyclohexyl)-4,6-difluoro-1H-indole-2-carboxamide] | 0.023 µM (≈ 0.00705 µg/mL) |
